Data as given in ChEMBL document CHEMBL2163275, “The lipogenesis pathway as a cancer target” (J Med Chem, 2011).
pIC50, pKi: −log10 of the molar value.

How the values were obtained:
ATP-citrate synthase [1] = target: T1, ATP-citrate synthase (Homo sapiens, UniProt P53396); experiment: Inhibition of human recombinant ACLY
T1 sequence (P53396 whole entry): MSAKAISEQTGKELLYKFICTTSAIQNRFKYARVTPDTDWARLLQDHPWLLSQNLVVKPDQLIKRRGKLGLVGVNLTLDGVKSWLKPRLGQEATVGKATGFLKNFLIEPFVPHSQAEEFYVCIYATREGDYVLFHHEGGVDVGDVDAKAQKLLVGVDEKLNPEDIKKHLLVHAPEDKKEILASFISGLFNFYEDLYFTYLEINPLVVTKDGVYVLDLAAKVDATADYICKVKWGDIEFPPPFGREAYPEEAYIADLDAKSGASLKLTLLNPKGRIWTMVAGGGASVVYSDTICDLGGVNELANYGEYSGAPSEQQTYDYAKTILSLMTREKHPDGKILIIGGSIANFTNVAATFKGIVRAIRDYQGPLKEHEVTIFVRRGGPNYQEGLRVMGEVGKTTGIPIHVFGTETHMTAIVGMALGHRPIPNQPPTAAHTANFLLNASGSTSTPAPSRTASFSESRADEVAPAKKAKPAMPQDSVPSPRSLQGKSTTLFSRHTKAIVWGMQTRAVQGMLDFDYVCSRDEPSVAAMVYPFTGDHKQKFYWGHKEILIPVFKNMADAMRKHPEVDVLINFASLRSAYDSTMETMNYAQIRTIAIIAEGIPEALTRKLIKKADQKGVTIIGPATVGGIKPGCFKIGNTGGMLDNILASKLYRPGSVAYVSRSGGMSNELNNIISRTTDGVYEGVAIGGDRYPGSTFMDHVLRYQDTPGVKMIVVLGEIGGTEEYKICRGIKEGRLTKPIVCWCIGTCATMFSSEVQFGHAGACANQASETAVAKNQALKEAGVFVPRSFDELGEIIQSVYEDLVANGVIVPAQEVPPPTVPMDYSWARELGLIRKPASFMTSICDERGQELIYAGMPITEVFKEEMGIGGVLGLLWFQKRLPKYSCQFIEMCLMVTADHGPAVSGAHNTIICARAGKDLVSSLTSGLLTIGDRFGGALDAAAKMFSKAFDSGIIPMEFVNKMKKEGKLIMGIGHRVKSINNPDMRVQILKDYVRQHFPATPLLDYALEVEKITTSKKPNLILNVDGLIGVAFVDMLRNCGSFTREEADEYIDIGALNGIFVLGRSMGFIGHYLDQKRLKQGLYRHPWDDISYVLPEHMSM

[2] = Inhibition of duck liver FASN; parameters: species or system Anas platyrhynchos
[3] = Inhibition of duck liver FASN ketoreductase activity; parameters: species or system Anas platyrhynchos
Fatty acid synthase [4] = target: T2, Fatty acid synthase (Gallus gallus, UniProt P12276); experiment: Inhibition of chicken liver FASN
Fatty acid synthase [5] = target: T3, Fatty acid synthase (Homo sapiens, UniProt P49327); experiment: Inhibition of FASN in human A375 cells; format: cell-based, A-375
Fatty acid synthase [6] = target: T2, Fatty acid synthase; experiment: Inhibition of chicken liver FASN ketoreductase activity
HepG2 = experiment: Cytotoxicity against human HepG2 cells by MTT assay; format: functional, cell-based
ATP-citrate synthase [7] = target: T4, ATP-citrate synthase (Rattus norvegicus, UniProt P16638)
T4 sequence (P16638 whole entry): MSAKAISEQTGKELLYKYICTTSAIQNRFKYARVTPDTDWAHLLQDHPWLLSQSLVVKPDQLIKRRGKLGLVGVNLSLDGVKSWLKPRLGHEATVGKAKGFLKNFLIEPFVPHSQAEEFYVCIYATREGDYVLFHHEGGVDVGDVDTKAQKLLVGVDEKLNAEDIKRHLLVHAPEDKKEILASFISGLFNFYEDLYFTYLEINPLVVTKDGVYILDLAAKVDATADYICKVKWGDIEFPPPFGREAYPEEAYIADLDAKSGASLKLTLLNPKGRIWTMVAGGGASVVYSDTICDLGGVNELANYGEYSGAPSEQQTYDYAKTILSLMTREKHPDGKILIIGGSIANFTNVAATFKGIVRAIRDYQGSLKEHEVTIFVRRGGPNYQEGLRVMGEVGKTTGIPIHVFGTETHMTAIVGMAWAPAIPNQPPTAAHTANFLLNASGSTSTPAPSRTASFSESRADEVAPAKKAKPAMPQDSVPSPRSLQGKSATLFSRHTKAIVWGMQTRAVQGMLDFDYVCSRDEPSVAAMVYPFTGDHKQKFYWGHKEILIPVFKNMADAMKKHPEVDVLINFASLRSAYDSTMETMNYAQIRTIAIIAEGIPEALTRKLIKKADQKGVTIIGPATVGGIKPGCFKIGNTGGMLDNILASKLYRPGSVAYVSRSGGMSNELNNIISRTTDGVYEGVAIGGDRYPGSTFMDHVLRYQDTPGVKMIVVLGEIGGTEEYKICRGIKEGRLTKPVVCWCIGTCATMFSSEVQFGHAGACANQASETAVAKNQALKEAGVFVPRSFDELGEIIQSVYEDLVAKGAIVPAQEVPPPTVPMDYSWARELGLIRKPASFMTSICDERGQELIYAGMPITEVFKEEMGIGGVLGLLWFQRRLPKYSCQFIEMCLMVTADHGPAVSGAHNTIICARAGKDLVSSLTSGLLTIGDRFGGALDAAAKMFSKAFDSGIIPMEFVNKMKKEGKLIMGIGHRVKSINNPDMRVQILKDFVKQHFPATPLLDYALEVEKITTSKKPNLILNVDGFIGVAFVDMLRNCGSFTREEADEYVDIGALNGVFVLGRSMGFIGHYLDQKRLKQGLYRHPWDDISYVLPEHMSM
Description: Inhibition of rat liver ACLY

[8] = Inhibition of Ustilago maydis recombinant ACC expressed in Escherichia coli BL21(DE3) using acetyl coA as substrate and [14C]NaHCO3 incubated for 10 mins prior to substrate addition by liquid scintillation counting; parameters: species or system Mycosarcoma maydis
[9] = Inhibition of acetyl coA carboxylase in human MCF7 cells; format: cell-based
Fatty acid synthase [10] = target: T3, Fatty acid synthase; experiment: Inhibition of human recombinant FASN thioesterase domain

T3 sequence (P49327 whole entry): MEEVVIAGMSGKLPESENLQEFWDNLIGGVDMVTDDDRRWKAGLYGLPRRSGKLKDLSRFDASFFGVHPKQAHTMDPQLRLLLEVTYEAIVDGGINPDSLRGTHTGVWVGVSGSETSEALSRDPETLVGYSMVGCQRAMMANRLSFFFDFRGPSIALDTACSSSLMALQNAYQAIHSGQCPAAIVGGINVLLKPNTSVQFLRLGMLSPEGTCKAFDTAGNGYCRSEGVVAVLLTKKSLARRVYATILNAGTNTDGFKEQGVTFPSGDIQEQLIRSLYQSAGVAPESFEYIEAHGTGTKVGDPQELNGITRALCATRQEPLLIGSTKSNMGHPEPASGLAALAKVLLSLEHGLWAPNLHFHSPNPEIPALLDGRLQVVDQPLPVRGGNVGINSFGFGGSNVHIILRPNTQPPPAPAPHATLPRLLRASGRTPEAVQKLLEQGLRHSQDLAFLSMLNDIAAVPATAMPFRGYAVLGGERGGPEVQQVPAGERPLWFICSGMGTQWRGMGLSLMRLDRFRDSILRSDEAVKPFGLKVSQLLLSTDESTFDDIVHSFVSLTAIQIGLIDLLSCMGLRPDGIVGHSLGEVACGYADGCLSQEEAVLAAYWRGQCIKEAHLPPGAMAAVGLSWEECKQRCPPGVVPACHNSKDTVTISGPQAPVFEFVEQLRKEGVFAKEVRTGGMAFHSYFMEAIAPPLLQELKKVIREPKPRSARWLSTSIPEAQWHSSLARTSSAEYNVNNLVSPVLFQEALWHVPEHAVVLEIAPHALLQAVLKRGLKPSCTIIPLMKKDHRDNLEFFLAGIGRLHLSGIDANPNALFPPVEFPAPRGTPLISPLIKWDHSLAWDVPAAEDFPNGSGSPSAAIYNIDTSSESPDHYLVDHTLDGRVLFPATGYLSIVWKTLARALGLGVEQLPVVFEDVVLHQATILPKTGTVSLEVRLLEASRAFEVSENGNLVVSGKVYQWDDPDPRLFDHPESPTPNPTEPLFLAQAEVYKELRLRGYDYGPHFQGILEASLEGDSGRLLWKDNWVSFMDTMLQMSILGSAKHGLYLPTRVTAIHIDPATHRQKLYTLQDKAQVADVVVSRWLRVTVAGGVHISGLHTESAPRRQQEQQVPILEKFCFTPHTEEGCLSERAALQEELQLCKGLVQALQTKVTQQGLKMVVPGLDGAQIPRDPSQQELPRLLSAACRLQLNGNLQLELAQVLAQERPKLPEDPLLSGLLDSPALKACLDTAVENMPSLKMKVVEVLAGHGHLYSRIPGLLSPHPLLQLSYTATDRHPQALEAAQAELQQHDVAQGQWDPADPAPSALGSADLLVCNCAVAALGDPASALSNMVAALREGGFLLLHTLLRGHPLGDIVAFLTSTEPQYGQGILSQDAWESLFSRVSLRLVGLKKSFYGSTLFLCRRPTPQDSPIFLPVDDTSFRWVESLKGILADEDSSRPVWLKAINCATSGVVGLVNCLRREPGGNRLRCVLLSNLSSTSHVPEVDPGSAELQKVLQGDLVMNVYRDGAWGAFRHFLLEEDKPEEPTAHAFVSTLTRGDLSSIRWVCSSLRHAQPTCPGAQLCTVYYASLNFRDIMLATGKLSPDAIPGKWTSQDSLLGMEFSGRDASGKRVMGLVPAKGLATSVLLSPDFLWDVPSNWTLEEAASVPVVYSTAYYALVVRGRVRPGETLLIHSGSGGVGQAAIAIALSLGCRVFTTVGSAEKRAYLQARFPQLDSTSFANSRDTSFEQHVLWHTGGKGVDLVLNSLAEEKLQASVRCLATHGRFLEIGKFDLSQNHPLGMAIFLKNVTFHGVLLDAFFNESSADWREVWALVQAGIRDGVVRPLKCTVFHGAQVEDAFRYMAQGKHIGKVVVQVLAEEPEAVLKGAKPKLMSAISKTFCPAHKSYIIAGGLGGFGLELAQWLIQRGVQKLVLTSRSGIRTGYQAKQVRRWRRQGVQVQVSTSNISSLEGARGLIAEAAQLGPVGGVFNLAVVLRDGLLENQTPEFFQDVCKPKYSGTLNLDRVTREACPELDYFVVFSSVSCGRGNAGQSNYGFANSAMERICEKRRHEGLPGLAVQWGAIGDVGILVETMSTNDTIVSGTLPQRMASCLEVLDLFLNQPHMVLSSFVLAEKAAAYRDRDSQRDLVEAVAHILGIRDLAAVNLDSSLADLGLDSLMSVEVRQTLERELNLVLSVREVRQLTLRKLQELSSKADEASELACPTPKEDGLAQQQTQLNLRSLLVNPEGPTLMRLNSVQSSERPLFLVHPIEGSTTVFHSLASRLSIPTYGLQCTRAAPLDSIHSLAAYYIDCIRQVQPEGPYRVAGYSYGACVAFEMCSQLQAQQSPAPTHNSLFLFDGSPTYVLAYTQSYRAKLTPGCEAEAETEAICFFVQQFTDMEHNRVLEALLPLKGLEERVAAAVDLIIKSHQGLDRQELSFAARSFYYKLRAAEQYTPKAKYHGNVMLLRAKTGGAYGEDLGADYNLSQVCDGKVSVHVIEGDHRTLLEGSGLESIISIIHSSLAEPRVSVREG
T2 sequence (P12276 whole entry): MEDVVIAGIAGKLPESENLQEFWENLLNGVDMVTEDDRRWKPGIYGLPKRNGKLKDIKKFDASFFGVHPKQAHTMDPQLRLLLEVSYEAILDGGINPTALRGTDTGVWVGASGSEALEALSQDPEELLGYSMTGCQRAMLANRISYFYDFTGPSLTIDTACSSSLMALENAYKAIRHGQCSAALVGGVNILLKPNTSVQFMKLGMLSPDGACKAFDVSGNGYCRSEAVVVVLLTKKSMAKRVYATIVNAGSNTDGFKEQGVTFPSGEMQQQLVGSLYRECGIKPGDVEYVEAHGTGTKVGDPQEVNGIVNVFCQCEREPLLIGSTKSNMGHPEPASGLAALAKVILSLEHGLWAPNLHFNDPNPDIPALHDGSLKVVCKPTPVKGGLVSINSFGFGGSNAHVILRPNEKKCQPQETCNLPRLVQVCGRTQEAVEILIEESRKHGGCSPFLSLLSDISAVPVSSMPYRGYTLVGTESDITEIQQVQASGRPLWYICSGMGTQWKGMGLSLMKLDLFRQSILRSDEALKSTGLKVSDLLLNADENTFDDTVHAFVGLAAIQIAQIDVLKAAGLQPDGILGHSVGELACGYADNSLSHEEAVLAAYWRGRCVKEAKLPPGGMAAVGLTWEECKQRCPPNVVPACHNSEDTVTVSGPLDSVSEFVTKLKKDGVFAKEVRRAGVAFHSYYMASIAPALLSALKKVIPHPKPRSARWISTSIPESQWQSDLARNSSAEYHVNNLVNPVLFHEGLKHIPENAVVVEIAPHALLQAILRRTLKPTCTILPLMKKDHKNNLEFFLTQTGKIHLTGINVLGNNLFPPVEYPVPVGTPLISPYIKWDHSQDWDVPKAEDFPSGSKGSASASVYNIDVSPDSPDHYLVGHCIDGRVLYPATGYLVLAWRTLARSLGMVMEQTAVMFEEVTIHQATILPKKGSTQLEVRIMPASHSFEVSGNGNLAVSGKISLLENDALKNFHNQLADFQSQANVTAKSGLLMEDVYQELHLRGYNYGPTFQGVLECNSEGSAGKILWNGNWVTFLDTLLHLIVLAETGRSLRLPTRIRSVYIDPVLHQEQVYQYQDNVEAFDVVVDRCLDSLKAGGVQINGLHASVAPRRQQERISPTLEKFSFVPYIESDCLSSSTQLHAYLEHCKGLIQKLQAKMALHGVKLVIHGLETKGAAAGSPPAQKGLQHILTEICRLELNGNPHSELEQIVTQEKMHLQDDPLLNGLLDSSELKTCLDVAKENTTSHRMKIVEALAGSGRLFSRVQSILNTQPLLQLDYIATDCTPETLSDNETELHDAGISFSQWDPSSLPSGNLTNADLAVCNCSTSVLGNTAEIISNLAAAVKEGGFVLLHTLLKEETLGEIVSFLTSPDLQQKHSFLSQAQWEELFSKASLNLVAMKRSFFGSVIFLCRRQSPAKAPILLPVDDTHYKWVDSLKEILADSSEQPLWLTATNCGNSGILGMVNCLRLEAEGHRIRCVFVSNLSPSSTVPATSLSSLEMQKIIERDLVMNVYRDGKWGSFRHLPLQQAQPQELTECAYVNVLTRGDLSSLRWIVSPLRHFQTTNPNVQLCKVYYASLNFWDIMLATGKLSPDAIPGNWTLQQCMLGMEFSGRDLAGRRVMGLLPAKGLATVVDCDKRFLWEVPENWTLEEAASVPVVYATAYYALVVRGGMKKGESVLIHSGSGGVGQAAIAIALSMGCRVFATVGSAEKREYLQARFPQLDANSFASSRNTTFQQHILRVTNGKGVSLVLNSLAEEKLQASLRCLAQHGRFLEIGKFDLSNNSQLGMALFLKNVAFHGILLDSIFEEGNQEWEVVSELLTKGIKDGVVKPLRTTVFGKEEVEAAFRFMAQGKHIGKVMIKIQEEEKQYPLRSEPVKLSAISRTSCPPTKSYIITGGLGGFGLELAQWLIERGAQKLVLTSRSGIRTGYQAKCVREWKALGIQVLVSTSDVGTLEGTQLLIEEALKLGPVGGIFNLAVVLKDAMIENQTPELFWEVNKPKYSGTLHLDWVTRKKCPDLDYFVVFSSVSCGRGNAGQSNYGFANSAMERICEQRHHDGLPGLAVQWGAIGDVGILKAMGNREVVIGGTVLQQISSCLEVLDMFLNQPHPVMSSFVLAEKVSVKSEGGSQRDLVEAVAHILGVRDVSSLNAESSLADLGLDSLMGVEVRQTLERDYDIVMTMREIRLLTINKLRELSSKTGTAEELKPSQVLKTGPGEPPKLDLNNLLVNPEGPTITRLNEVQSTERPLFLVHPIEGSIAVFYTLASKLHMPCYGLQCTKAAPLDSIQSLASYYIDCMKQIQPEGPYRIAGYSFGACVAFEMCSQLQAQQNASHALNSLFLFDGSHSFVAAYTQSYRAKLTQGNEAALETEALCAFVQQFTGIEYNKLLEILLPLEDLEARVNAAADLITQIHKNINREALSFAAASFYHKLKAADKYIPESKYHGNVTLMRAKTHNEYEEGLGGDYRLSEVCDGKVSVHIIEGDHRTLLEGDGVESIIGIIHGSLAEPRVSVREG

Cc1cn(-c2cc(Cl)ccc2CCCCCC[C@H](O)C[C@@](O)(CC(=O)O)C(=O)O)cc1C (stereo in doubt; 134)
pKi (ATP-citrate synthase [1]): 6.24

Cc1cn(-c2cc(Cl)ccc2CCCCCC[C@H](O)C[C@@](O)(CC(=O)O)C(=O)O)cc1C (stereo in doubt; 135)
pKi (ATP-citrate synthase [1]): 6.47

O=C(O[C@@H]1Cc2c(O)cc(O)cc2O[C@H]1c1ccc(O)c(O)c1)c1cc(O)c(O)c(O)c1 [(-)-CATECHINGALLATE]
pIC50 [2]: 5.47
pIC50 [3]: 4.52

O=c1c(O[C@@H]2O[C@@H](CO)[C@H](O)[C@H]2O)c(-c2ccc(O)c(O)c2)oc2cc(O)cc(O)c12 [AVICULARIN]
pIC50 (Fatty acid synthase [4]): 5.21

C/C=C/C/C=C/CCC(=O)[C@H]1O[C@H]1C(N)=O [CERULENIN]
pIC50 (Fatty acid synthase [5]): 4.66

O=C(O[C@@H]1Cc2c(O)cc(O)cc2O[C@@H]1c1cc(O)c(O)c(O)c1)c1cc(O)c(O)c(O)c1 [EPIGALOCATECHIN GALLATE]
pIC50 (Fatty acid synthase [4]): 4.28
pIC50 (Fatty acid synthase [6]): 4.00

O=c1c(O)c(-c2ccc(O)c(O)c2)oc2cc(O)ccc12 [FISETIN]
pIC50 (HepG2): < 3.40
pIC50 [2]: 4.73

O=C(/C=C/c1ccc(O)cc1)c1ccc(O)cc1O [ISOLIQUIRITIGENIN]
pIC50 [2]: 5.06
pIC50 [3]: 3.85

O=c1c(O)c(-c2ccc(O)cc2)oc2cc(O)cc(O)c12 [KAEMPFEROL]
pIC50 (HepG2): < 3.40
pIC50 [2]: 4.98

O=c1cc(-c2ccc(O)c(O)c2)oc2cc(O)cc(O)c12 [LUTEOLIN]
pIC50 (HepG2): 4.15
pIC50 [2]: 5.60

O=c1c(O)c(-c2ccc(O)cc2O)oc2cc(O)cc(O)c12 [MORIN]
pIC50 [2]: 5.64
pIC50 [3]: 4.59

CC(Cc1ccc(O)c(O)c1)C(C)Cc1ccc(O)c(O)c1 (centres undefined) [NORDIHYDROGUAIARETIC ACID]
pIC50 [2]: 5.03
pIC50 [3]: 3.37

O=C1C(c2ccc(O)c(O)c2)=c2c(c3c(n2CCc2ccc(O)cc2)=C(c2ccc(O)c(O)c2)C(=O)c2cc(O)c(O)cc2-3)-c2cc(O)c(O)cc21 [PURPURONE]
pIC50 (ATP-citrate synthase [7]): 5.15

O=c1c(O)c(-c2ccc(O)c(O)c2)oc2cc(O)cc(O)c12 [QUERCETIN]
pIC50 (HepG2): 4.51
pIC50 [2]: 5.37

Oc1ccc(/C=C/c2cc(O)cc(O)c2)cc1 [RESVERATROL]
pIC50 [2]: 5.07
pIC50 [3]: 3.92

CO[C@H]1CCCC[C@@H](c2ccccc2)OC(=O)[C@@H](C)[C@@]2(O)O[C@H]([C@@H](C)[C@H](O)[C@H]2OC)[C@@H](C)/C=C/[C@H]1OC [SORAPHEN A]
pKi [8]: 8.68

CCCCCCCCCCCCCCOc1ccc(C(=O)O)o1 [TOFA]
pIC50 [9]: 4.91

C[C@H]1[C@H](C)CC[C@]2(C(=O)O)CC[C@]3(C)C(=CC[C@@H]4[C@@]5(C)CC[C@H](O)C(C)(C)[C@@H]5CC[C@]43C)[C@H]12 [URSOLIC ACID]
pIC50 (Fatty acid synthase [4]): 4.88
pIC50 (Fatty acid synthase [6]): 4.23

H-EITPEKNPQLR-OH
pIC50 (Fatty acid synthase [10]): 5.00
pIC50 (Fatty acid synthase [6]): 4.57

H-KNPQLR-OH
pIC50 (Fatty acid synthase [6]): 4.10

H-RKQEEDEDEEQQRE-OH
pIC50 (Fatty acid synthase [10]): 4.96
pIC50 (Fatty acid synthase [6]): 4.80
